Measured values taken from article PMC6292506 (Nature structural & molecular biology, 2018).
Where a SMILES comes first, the peptide text is derived from it.

What was measured:
GFP-Cdc14 [1] = molecular target: GFP-Cdc14 (Saccharomyces cerevisiae, UniProt Q00684); assay: biochemical; type: binding
Cdc14 with Net1^1-600 = type: biochemical, Saccharomyces cerevisiae; settings: 200 nM Net1^1-600; two independent experiments (Fig. 4c)
Cdc14 = Cdc14 (Saccharomyces cerevisiae, UniProt Q00684); type: biochemical; settings: for Dephosphorylation of pTP phosphopeptide by Cdc14: 1 µM Cdc14 (Supplementary Fig. 9d)
His6-Net1^1-600 = molecular target: T1, His6-Net1^1-600 (S. cerevisiae, UniProt P47035 1-600); assay: pull-down
T1 sequence (looked up): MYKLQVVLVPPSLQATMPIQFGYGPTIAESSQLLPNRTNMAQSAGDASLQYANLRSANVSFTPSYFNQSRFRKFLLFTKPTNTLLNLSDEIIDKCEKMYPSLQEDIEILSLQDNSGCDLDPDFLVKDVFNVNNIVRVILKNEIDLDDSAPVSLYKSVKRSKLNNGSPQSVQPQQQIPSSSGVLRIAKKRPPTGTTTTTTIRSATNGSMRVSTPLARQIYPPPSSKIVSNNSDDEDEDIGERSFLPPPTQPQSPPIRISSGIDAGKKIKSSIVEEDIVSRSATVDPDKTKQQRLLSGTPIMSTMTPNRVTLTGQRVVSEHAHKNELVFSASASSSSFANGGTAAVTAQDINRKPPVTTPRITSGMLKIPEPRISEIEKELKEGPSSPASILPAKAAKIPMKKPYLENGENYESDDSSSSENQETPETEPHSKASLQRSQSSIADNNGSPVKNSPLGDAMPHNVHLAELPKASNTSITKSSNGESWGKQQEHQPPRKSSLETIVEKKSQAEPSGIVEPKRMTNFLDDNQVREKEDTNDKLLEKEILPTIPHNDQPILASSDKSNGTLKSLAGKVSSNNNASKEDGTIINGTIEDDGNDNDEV

GFP-Cdc14 [2] = molecular target: T2, GFP-Cdc14 (S. cerevisiae, UniProt Q00684 1-551); assay: MST
T2 sequence (looked up): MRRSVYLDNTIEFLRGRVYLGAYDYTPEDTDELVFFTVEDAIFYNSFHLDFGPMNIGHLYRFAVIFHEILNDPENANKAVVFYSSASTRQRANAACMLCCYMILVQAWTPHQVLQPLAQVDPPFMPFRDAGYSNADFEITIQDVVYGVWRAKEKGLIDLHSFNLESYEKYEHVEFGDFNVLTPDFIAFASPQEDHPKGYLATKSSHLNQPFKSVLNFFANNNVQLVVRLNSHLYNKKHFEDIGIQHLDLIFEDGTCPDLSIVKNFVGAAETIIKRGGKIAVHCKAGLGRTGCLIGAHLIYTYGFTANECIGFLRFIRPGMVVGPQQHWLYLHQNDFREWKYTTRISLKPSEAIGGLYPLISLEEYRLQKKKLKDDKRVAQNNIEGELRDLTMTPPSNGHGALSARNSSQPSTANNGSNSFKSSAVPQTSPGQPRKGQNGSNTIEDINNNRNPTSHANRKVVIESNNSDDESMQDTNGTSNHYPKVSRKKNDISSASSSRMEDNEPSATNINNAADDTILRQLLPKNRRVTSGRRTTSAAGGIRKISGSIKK

Molecule `CC(C)C[C@H](NC(=O)[C@H](CC(C)C)NC(=O)[C@@H]1CCCN1C(=O)[C@H](C)NC(=O)[C@H](CC(N)=O)NC(=O)[C@H](CCCCN)NC(=O)[C@H](Cc1ccccc1)NC(=O)[C@H](CO)NC(=O)[C@H](CCCCN)NC(=O)[C@@H](NC(=O)[C@@H](NC(=O)[C@H](CO)NC(=O)[C@@H]1CCCN1)[C@@H](C)O)[C@@H](C)O)C(=O)N[C@@H](C)C(=O)N1CCC[C@H]1C(=O)N1CCC[C@H]1C(=O)O` [Sic1 peptide] (H-PSTTKSFKNAPLLAPP-OH) has a Kd (GFP-Cdc14 [1]) of 32.2 µM.

With YVPAPAPTTPLNFDHP [scrambled peptide] the “Effect of peptide on inhibition of Cdc14 p-NPP hydrolysis by Net1” value (Cdc14 with Net1^1-600) was “observed to a much lesser extent”.

In the case of “FTDVPALNYPATPPPHTSPLGpTPLAAFNGLTSPQRSPFP-KSSVK [PxL…pTP peptide]”, the “Dephosphorylation of pTP phosphopeptide by Cdc14” value (Cdc14) is reported as “substantially enhanced”.

For “FTDVPALNYPATPPPH-TSPLGpSPLAAFNGLTSPQRSPFPKSSVK [PxL…pSPxAA peptide]”, the “Behaviour at higher substrate concentrations” value (Cdc14; pSPxAA phosphopeptide, 100 nM Cdc14, above 50 μM (Fig. 6a)) was “apparent substrate inhibition”.

In the case of “FTDVAAGNYPATPPPH-TSPLGpTPLAAFNGLTSPQRSPFPKSSVK [AxG…pTP control peptide]”, the “Dephosphorylation of pTP phosphopeptide by Cdc14” value (Cdc14) is reported as “almost undetectable”.

B1: GST-Cdc14 (enzyme, S. cerevisiae, UniProt Q00684 1-551, looked up)
chain: T2 sequence (looked up)
B1: binds (His6-Net1^1-600).

For Ac-KGKLILSSVPPLPYDE-NH2 [Kar9-derived PxL motif peptide], the Kd (GFP-Cdc14 [2]) was 6 µM.

For FTDVPALNYPATPPPH [Cbk1-derived PxL motif peptide (16-mer)], the Kd (GFP-Cdc14 [2]) was 6.1 µM.
